This is an account of results in patent publication US20060276464A1, “Diarylsulfone sulfonamides and use thereof” (Wyeth, priority 2005, published 2006).

Test [1] deals with T1, SFRP-1 (Homo sapiens, UniProt Q8N474).
T1 sequence (Q8N474 32-314): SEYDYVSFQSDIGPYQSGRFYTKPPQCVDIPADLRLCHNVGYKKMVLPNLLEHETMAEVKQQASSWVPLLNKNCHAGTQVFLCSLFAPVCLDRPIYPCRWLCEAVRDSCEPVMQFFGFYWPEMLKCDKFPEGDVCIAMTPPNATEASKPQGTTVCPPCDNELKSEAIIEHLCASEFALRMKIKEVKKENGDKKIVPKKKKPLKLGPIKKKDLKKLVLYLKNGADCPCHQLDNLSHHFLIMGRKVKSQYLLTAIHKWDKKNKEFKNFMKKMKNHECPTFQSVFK
Put plainly: Fluorescence polarization binding assay (competitive displacement of a probe compound from SFRP-1).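 Further: test compound competes with a fluorescent probe held by SFRP-1, seen as a drop in probe anisotropy after incubation in darkness, with anisotropy as function of rising compound dose.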 Particulars: fluorescence anisotropy, 45 nM SFRP-1, 20 nM probe. (In fluorescence polarisation assays a small probe gives low polarisation when free and higher when bound to something large.)

Test [2] concerns the target T1, SFRP-1. The test is described as follows: Cell-based assay for in vitro measurement of SFRP-1/SARP2 antagonist activity (U2OS cells co-transfected with 16x TCF-tk-Luciferase reporter, Wnt and hSFRP-1).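 Further: U2OS cells co-transfected with a TCF-tk luciferase reporter, a Wnt vector, hSFRP-1 or empty vector and CMV-βgal, luciferase luminescence read in cell lysates alongside βgal activity.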 Conditions: U2OS.
The mark [3] stands for this setting: read-out: Fold Induction with SFRP-1, Conc 15 μM, with SFRP-1, fold induction over SFRP-1 control, single dose.
[4] abbreviates: read-out: Fold Induction without SFRP-1, Conc 15 μM, without SFRP-1, single dose.

Values joined by “and” are separate entries in the source; they are usually repeats but may differ in a detail not shown here. Equal entries are not always repeated. Where two headings read alike, the source gives them in different places.

Broadly, the IC50 is the point on the concentration scale where inhibition reaches its midpoint. Higher therefore signals weaker potency.

Consider `CCc1ccc(S(=O)(=O)c2ccc(F)cc2)cc1S(=O)(=O)NCCn1ccnc1` [Example 297, 2-ethyl-5-[(4-fluorophenyl)sulfonyl]-N-[2-(1H-imidazol-1-yl)ethyl]benzenesulfonamide], for which the IC50 at SFRP-1 [1] was 0.4 µM. For the same molecule, the fold induction at 15 µM came out at 4.3 at SFRP-1 [2] (setting [3]) and 1.4 at SFRP-1 [2] (setting [4]).

In turn, `Cc1ccc(S(=O)(=O)c2ccccc2)cc1S(=O)(=O)NC1CCOCC1` [Example 298, 2-methyl-5-(phenylsulfonyl)-N-tetrahydro-2H-pyran-4-ylbenzenesulfonamide] displayed an IC50 on SFRP-1 [1] of 0.8 µM. The fold induction at 15 µM is 3.2 at SFRP-1 [2] (setting [3]) and 1.3 at SFRP-1 [2] (setting [4]).

Regarding `CCc1ccc(S(=O)(=O)c2ccc(F)cc2)cc1S(=O)(=O)NCCCn1ccnc1` [Example 303, 2-ethyl-5-[(4-fluorophenyl)sulfonyl]-N-[3-(1H-imidazol-1-yl)propyl]benzenesulfonamide], the IC50 at SFRP-1 [1] was determined as 0.7 µM. Moreover, the fold induction at 15 µM at SFRP-1 [2] (setting [3]) stood at 2.7; on SFRP-1 [2] (setting [4]), 0.8.

`CNc1ccc(S(=O)(=O)c2ccc(C)c(S(=O)(=O)NCCCn3ccnc3)c2)cc1` [Example 310, N-[3-(1H-imidazol-1-yl)propyl]-2-methyl-5-{[4-(methylamino)phenyl]sulfonyl}benzenesulfonamide] displayed an IC50 at SFRP-1 [1] of 0.4 µM. Besides, the fold induction at 15 µM on SFRP-1 [2] (setting [3]) was determined as 2.9; on SFRP-1 [2] (setting [4]), 1.1.

On to `CCNc1ccc(S(=O)(=O)c2ccc(C)c(S(=O)(=O)NCCCn3ccnc3)c2)cc1` [Example 311, 5-{[4-(ethylamino)phenyl]sulfonyl}-N-[3-(1H-imidazol-1-yl)propyl]-2-methylbenzenesulfonamide], for which the IC50 at SFRP-1 [1] came out at 0.4 µM. In addition, the values for the fold induction at 15 µM on SFRP-1 [2] (setting [3]) and at SFRP-1 [2] (setting [4]) were 2.4 and 1, respectively.

Take `Cc1ccc(S(=O)(=O)c2ccc(N3CCOCC3)cc2)cc1S(=O)(=O)NCCCn1ccnc1` [Example 313, N-[3-(1H-imidazol-1-yl)propyl]-2-methyl-5-[(4-morpholin-4-ylphenyl)sulfonyl]benzenesulfonamide]: the IC50 on SFRP-1 [1] amounted to 0.5 µM. The fold induction at 15 µM amounted to 1.9 at SFRP-1 [2] (setting [3]) and 1 on SFRP-1 [2] (setting [4]).

`Cc1ccc(S(=O)(=O)c2ccccc2)cc1S(=O)(=O)NCCn1ccnc1` [Example 314, N-[2-(1H-imidazol-1-yl)ethyl]-2-methyl-5-(phenylsulfonyl)benzenesulfonamide] gave an IC50 on SFRP-1 [1] of 1.2 µM. The fold induction at 15 µM at SFRP-1 [2] (setting [3]) is 3.3; on SFRP-1 [2] (setting [4]), 1.3.

Turning to `CC(C)c1ccc(S(=O)(=O)c2ccc(F)cc2)cc1S(=O)(=O)NCCn1ccnc1` [Example 318, 5-[(4-fluorophenyl)sulfonyl]-N-[2-(1H-imidazol-1-yl)ethyl]-2-isopropylbenzenesulfonamide], the IC50 on SFRP-1 [1] was 0.4 µM and 0.5 µM and 0.6 µM and 0.7 µM and 0.9 µM. Moreover, the figures for the fold induction at 15 µM on SFRP-1 [2] (setting [3]) and on SFRP-1 [2] (setting [4]) were 3.9 and 1.1, respectively.

As for `CC(C)c1ccc(S(=O)(=O)c2ccc(F)cc2)cc1S(=O)(=O)NCCCn1ccnc1` [Example 319, 5-[(4-fluorophenyl)sulfonyl]-N-[3-(1H-imidazol-1-yl)propyl]-2-isopropylbenzenesulfonamide], the IC50 on SFRP-1 [1] amounted to 0.6 µM. For the same molecule, the fold induction at 15 µM turned out to be 3.5 on SFRP-1 [2] (setting [3]) and 1.1 on SFRP-1 [2] (setting [4]).

With `CC(C)c1ccc(S(=O)(=O)c2ccc(F)cc2)cc1S(=O)(=O)NCCc1ccccn1` [Example 320, 5-[(4-fluorophenyl)sulfonyl]-2-isopropyl-N-(2-pyridin-2-ylethyl)benzenesulfonamide], the IC50 at SFRP-1 [1] worked out at 0.9 µM. For the same molecule, the values for the fold induction at 15 µM on SFRP-1 [2] (setting [3]) and on SFRP-1 [2] (setting [4]) were 2.8 and 1.2, respectively.

As for `CC(C)c1ccc(S(=O)(=O)c2ccc(F)cc2)cc1S(=O)(=O)NC1CCOCC1` [Example 321, 5-[(4-fluorophenyl)sulfonyl]-2-isopropyl-N-tetrahydro-2H-pyran-4-ylbenzenesulfonamide], the IC50 at SFRP-1 [1] worked out at 1 µM. Also, the results for the fold induction at 15 µM on SFRP-1 [2] (setting [3]) and at SFRP-1 [2] (setting [4]) were 3.3 and 1.2, respectively.

As to `CC(C)c1ccc(S(=O)(=O)c2ccc(F)cc2)cc1S(=O)(=O)NCCC1CCOCC1` [Example 322, 5-[(4-fluorophenyl)sulfonyl]-2-isopropyl-N-(2-tetrahydro-2H-pyran-4-ylethyl)benzenesulfonamide], the IC50 at SFRP-1 [1] turned out to be 0.6 µM. Besides, the fold induction at 15 µM was found to be 2.5 at SFRP-1 [2] (setting [3]) and 1.1 on SFRP-1 [2] (setting [4]).

`Cc1cc(C)c(S(=O)(=O)c2ccccc2)cc1S(=O)(=O)NCCn1ccnc1` [Example 324, N-[2-(1H-imidazol-1-yl)ethyl]-2,4-dimethyl-5-(phenylsulfonyl)benzenesulfonamide]: the IC50 on SFRP-1 [1] was 0.9 µM. Moreover, the results for the fold induction at 15 µM at SFRP-1 [2] (setting [3]) and at SFRP-1 [2] (setting [4]) were 3.2 and 0.9, respectively.

In the case of `Cc1cc(C)c(S(=O)(=O)c2ccccc2)cc1S(=O)(=O)NCCC1CCOCC1` [Example 328, 2,4-dimethyl-5-(phenylsulfonyl)-N-(2-tetrahydro-2H-pyran-4-ylethyl)benzenesulfonamide], the IC50 on SFRP-1 [1] came to 3 µM. The fold induction at 15 µM at SFRP-1 [2] (setting [3]) is 2.6; at SFRP-1 [2] (setting [4]) it was 1.1.

For `Cc1cc(C)c(S(=O)(=O)c2ccc(F)cc2)cc1S(=O)(=O)NCCn1ccnc1` [Example 329, 5-[(4-fluorophenyl)sulfonyl]-N-[2-(1H-imidazol-1-yl)ethyl]-2,4-dimethylbenzenesulfonamide], the half-maximal inhibitory concentration (IC50) on SFRP-1 [1] was 1 µM. For the same molecule, the fold induction at 15 µM on SFRP-1 [2] (setting [3]) came out at 2.9; on SFRP-1 [2] (setting [4]), 0.9.

Molecule `Cc1ccc(S(=O)(=O)c2cc(Cl)cc(Cl)c2)cc1S(=O)(=O)NCCCn1ccnc1` [Example 344, 5-[(3,5-dichlorophenyl)sulfonyl]-N-[3-(1H-imidazol-1-yl)propyl]-2-methylbenzenesulfonamide] returned an IC50 on SFRP-1 [1] of 1.4 µM. Further, the values for the fold induction at 15 µM at SFRP-1 [2] (setting [3]) and on SFRP-1 [2] (setting [4]) were 2.2 and 1, respectively.

As to `Cc1ccc(S(=O)(=O)c2ccc(NCCC#N)cc2)cc1S(=O)(=O)NCCCn1ccnc1` [Example 353, 5-({4-[(2-cyanoethyl)amino]phenyl}sulfonyl)-N-[3-(1H-imidazol-1-yl)propyl]-2-methylbenzenesulfonamide], the IC50 on SFRP-1 [1] was 0.3 µM. Further, the values for the fold induction at 15 µM at SFRP-1 [2] (setting [3]) and at SFRP-1 [2] (setting [4]) were 3.3 and 1.1, respectively.

`CC[C@H](C)[C@@H](CO)Nc1ccc(S(=O)(=O)c2ccc(C)c(S(=O)(=O)NCCCn3ccnc3)c2)cc1` [Example 354, 5-[(4-{[(1S,2S)-1-(hydroxymethyl)-2-methylbutyl]amino}phenyl)sulfonyl]-N-[3-(1H-imidazol-1-yl)propyl]-2-methylbenzenesulfonamide] came in with an IC50 at SFRP-1 [1] of 1.4 µM. For the same molecule, the fold induction at 15 µM at SFRP-1 [2] (setting [3]) came to 2.6; at SFRP-1 [2] (setting [4]), 1.

Turning to `CNc1ccc(S(=O)(=O)c2ccc(C)c(S(=O)(=O)NCCc3ccccn3)c2)cc1` [Example 356, 2-methyl-5-{[4-(methylamino)phenyl]sulfonyl)-N-(2-pyridin-2-ylethyl)benzenesulfonamide], the 50% inhibitory concentration (IC50) on SFRP-1 [1] is 1.7 µM. For the same molecule, the fold induction at 15 µM on SFRP-1 [2] (setting [3]) turned out to be 2.5; on SFRP-1 [2] (setting [4]), 1.

`CNc1ccc(S(=O)(=O)c2ccc(C(C)C)c(S(=O)(=O)NCCc3ccccn3)c2)cc1` [Example 357, 2-isopropyl-5-{[4-(methylamino)phenyl]sulfonyl}-N-(2-pyridin-2-ylethyl)benzenesulfonamide] displayed an IC50 on SFRP-1 [1] of 0.3 µM. Moreover, the fold induction at 15 µM at SFRP-1 [2] (setting [3]) worked out at 4.2; on SFRP-1 [2] (setting [4]) it was 1.1.
